Results reported in US20200138829A1, “METHODS OF CANCER TREATMENT” (Ferro Therapeutics, Inc., priority 2017, published 2020).
pIC50: −log10 of the molar value. Counter-ions that a name gives are not always drawn. Like-named read-outs stand apart in the source and are kept apart here. * marks the point of attachment. Cbz = O=C(OCc1ccccc1)*; CH2F = FC*

Assays:
[1] = system: KP-4 cells; experiment: Combination proliferation assay with PKC activator, KP-4; assay type: cell-based
Description: (§1) Cell viability assay was performed to assess the potency of the ferroptosis inducer compounds in various cancer cell lines with K-Ras mutations. Cells at a density of 1,000-10,000 cells/well were seeded in 96-well plates and incubated at 37° C. overnight. A series of 9 different concentrations of compound stocks (500×) were created by 3-fold serial dilution in DMSO. These compounds were further diluted in culture media and then added to cells so that the final DMSO concentration was equal to 0.25% or less. After 96 hours of incubation, 50 μL of CellTiter Glo reagent (Promega) was added to each well and luminescence was measured after 10 minutes using EnVision (PerkinElmer). K101A (a PKC activator) was used as the reference compound titrated from top concentration of 30 μM. All compounds were tested initially from 30 μM as the top concentration in duplicates (range of 4.6 nM-30 μM). […] Data was analyzed using XL-fit software (ID Business Solutions Ltd.). IC50, relative IC50, or % of top inhibition was calculated.
(§2) Therefore, whether PKC activators synergize or antagonize with ferroptosis inducers can be tested empirically.

[2] = system: A549 lung cancer cell line; experiment: Cell viability assay (CellTiter Glo), A549; assay type: cell-based
Description: (§3) Cell viability assay was performed to assess the potency of the ferroptosis inducer compounds in various cancer cell lines with K-Ras mutations. […] A series of 9 different concentrations of compound stocks (500×) were created by 3-fold serial dilution in DMSO. […] After 96 hours of incubation, 50 μL of CellTiter Glo reagent (Promega) was added to each well and luminescence was measured after 10 minutes using EnVision (PerkinElmer). […] […] IC50, relative IC50, or % of top inhibition was calculated.

[3] = system: Capan-1 cells; experiment: Combination proliferation assay with PKC activator, Capan-1; assay type: cell-based
Description: as §1, §2

[4] = system: PSN-1 cells; experiment: Combination proliferation assay with PKC activator, PSN-1; assay type: cell-based
Description: as §1, §2

[5] = system: Panc2.13 cells; experiment: Combination proliferation assay with PKC activator, Panc2.13; assay type: cell-based
Description: as §1, §2

[6] = system: MiaPaCa-2 pancreatic cancer cell line; experiment: Cell viability assay (CellTiter Glo), MiaPaCa-2; assay type: cell-based; conditions: Homo sapiens, MIA PaCa-2, 96 hours of incubation
Description: as §3

[7] = system: K-RAS mutant pancreatic cell lines; experiment: Cell viability assay, several pancreatic cell lines compared with A549; assay type: cell-based; conditions: for potency in the pancreatic cell lines relative to A549 (in words): MiaPaCa-2 and KP-4 versus A549
Description: (§4) Cell viability assay was performed to assess the potency of the ferroptosis inducer compounds in various cancer cell lines with K-Ras mutations. […] A series of 9 different concentrations of compound stocks (500×) were created by 3-fold serial dilution in DMSO. […] After 96 hours of incubation, 50 μL of CellTiter Glo reagent (Promega) was added to each well and luminescence was measured after 10 minutes using EnVision (PerkinElmer). […] IC50, relative IC50, or % of top inhibition was calculated. Next, RSL3, ML210, Erastin, and Auranofin were tested on additional K-RAS mutant pancreatic cell lines (Panc1, Panc6.03, Panc2.13, PSN-1, and Capan-1) in Table 1.

[8] = system: KP-4 pancreatic cancer cell line; experiment: Cell viability assay (CellTiter Glo), KP-4; assay type: cell-based; conditions: for selectivity for KP-4 over A549: KP-4 versus A549
Description: as §3

[9] = system: Namalwa cell line; experiment: Combination proliferation assay with PKC activator, Namalwa; assay type: cell-based
Description: as §1, §2
(§5) Therefore, it is of interest to test combination treatment of both classes of compounds in lymphoma cells.

[10] = system: A549 cells; experiment: Combination proliferation assay with PKC activator, A549; assay type: cell-based; conditions: inducer at concentration with minimal or no effect alone
Description: as §1, §2

[11] = system: Panc1 cells; experiment: Combination proliferation assay with PKC activator, Panc1; assay type: cell-based
Description: as §1, §2

[12] = system: KP-4 cells; experiment: Effect of ferroptosis or apoptosis inhibitor on RSL3- or Erastin-induced cell death, KP-4; conditions: KP-4; for effect on cell death induced by RSL3 or Erastin: co-treatment
Description: as §1
Ferroptosis inhibitors include: Ferrostatin-1 and Liproxstatin-1, inhibitors of ROS accumulation; Deferoxamine, an iron chelator; and PD146176, a 15-lipoxygenase inhibitor (see, e.g., Hofman et al., 2016, J Med Chem. March 10; 59(5):2041-53; Yang et al., 2016 Cell 26(3):165-176). The apoptosis inhibitor chosen was ZVAD (see, e.g. Wu et al., 2011, Cell Death and Differentiation 18:26-37). Ferroptosis inhibitors and ZVAD were first titrated as a single agent as shown in Example 1.

[13] = system: A549, MiaPaCa-2, and KP-4; experiment: Cell viability assay, comparison across A549, MiaPaCa-2 and KP-4; assay type: cell-based; conditions: single agent
Description: as §1

[14] = system: A549 cells; experiment: Effect of ferroptosis or apoptosis inhibitor on RSL3- or Erastin-induced cell death, A549; conditions: A549; ZVAD
Description: as §1
Ferroptosis inhibitors include: Ferrostatin-1 and Liproxstatin-1, inhibitors of ROS accumulation; Deferoxamine, an iron chelator; and PD146176, a 15-lipoxygenase inhibitor (see, e.g., Hofman et al., 2016, J Med Chem. March 10; 59(5):2041-53; Yang et al., 2016 Cell 26(3):165-176). […]

[15] = system: Capan-1 cells; experiment: Cell viability assay (CellTiter Glo), Capan-1; assay type: cell-based
Description: as §4

[16] = system: Panc2.13 cells; experiment: Cell viability assay (CellTiter Glo), Panc2.13; assay type: cell-based; conditions: Panc2.13 versus A549
Description: as §4

[17] = system: Mino cell line; experiment: Combination proliferation assay with PKC activator, Mino; assay type: cell-based
Description: as §1, §2, §5

[18] = system: PSN-1 cells; experiment: Cell viability assay (CellTiter Glo), PSN-1; assay type: cell-based; conditions: PSN-1; 96 hours of incubation
Description: as §4

For `COC(=O)c1ccc([C@H]2c3[nH]c4ccccc4c3C[C@H](C(=O)OC)N2C(=O)CCl)cc1` [RSL3], the “synergy when combined with K101A or K102” value [1] was “only additive effects”, the pIC50 ([2]; Homo sapiens, A549 lung cancer cell line, 96 hours of incubation) was 5.73 and the “% of top inhibition by K101A or K102 in combination with the ferroptosis inducer” value [3] was roughly 80%. The “effect on the potency of K101A or K102” value [3] was “increased the potency”, the “synergy with K101A or K102 to block proliferation” value (“synergy with K101A or K102” below) [3] was “synergized strongly” and the “synergy with K101A (PKC activators) to block proliferation” value (“synergy with K101A (PKC activators)” below) [4] was “synergized”. The “% of top inhibition by K101A or K102 in combination with the ferroptosis inducer” value [5] was roughly 80%, the “effect on the potency of K101A or K102” value [5] was “increased the potency” and the “synergy with K101A or K102” value [5] was “synergized”. The pIC50 [6] was 8.10, the “potency in the pancreatic cell lines relative to A549 (in words)” value [7] was “two to three orders of magnitude more potent” and the “selective cell death in comparison to A549” value ([7]; range over all five lines Panc1, Panc6.03, Panc2.13, PSN-1, Capan-1) was 2-26 fold. For the same molecule, the pIC50 ([8]; Pancreatic cancer cell, KP-4, 96 hours of incubation) was 8.70, the “effect of addition to K101A or K102 on potency and % of top inhibition” value [9] was “improved potency and % of top inhibition” and the “synergy with K101A or K102” value [10] was “synergized strongly”. For the same molecule, the “effect on the potency of K101A or K102” value [11] was “increasing the potency” and the “synergy with K101A or K102” value [11] was “synergized”.
With `CC(=O)O[C@@]12C[C@@H](C)[C@@]3(O)[C@@H](C=C(CO)C[C@]4(O)C(=O)C(C)=C[C@@H]34)[C@@H]1C2(C)C` [K101A, 12-deoxyphorbol 13-acetate] the “% of top inhibition by K101A or K102 without ferroptosis inducer” value [5] was roughly 60%.
For `COc1ccc(N(C(=O)CCl)C(C(=O)NCCc2ccccc2)c2cccs2)cc1Cl` (stereo not shown) [ML162], the “selectivity for KP-4 over A549” value [8] was greater than 80 fold.
For Cbz-Val-Ala-Asp-CH2F, the “effect on RSL3- or Erastin-induced cell death” value ([12]; ZVAD at 30 μM) was “did not rescue”, the “differential activity among three cell lines” value [13] was “do not show differential activity” and the “potency in blocking cell proliferation (in words)” value [13] was “not potent”. The “effect on RSL3- or Erastin-induced cell death” value [14] was “did not rescue”.
With `C[C@H]1[C@H](OC(=O)CCC(=O)O)O[C@@H]2O[C@@]3(C)CC[C@H]4[C@H](C)CC[C@@H]1[C@@]24OO3` [Artesunate] the “synergy when combined with K101A or K102” value [1] was “moderate/minor synergy”.
In the case of `CO[C@H]1O[C@@H]2O[C@@]3(C)CC[C@H]4[C@H](C)CC[C@@H]([C@H]1C)[C@@]24OO3` [Artemether], the “selectivity for KP-4 over A549” value [8] was greater than 5 fold.
For `Cc1onc(C(=O)N2CCN(C(c3ccc(Cl)cc3)c3ccc(Cl)cc3)CC2)c1[N+](=O)[O-]` [ML210], the “synergy when combined with K101A or K102” value [1] was “no synergy”, the “% of top inhibition by K101A or K102 in combination with the ferroptosis inducer” value [3] was roughly 80% and the “effect on the potency of K101A or K102” value [3] was “increased the potency”. The “synergy with K101A or K102” value [3] was “synergized strongly”, the “selectivity in comparison to A549” value ([15]; Capan-1 versus A549) was “no selectivity” and the “synergy with K101A (PKC activators)” value [4] was “synergized”. The “selectivity in comparison to A549” value [16] was “no selectivity”, the “synergy when combined with K101A or K102” value [17] was “minor synergy” and the “% of top inhibition by K101A or K102 in combination with the ferroptosis inducer” value [5] was roughly 80%. The “effect on the potency of K101A or K102” value [5] was “increased the potency”, the “synergy with K101A or K102” value [5] was “synergized” and the “potency in the pancreatic cell lines relative to A549 (in words)” value [7] was “at least two orders of magnitude more potent”. For the same molecule, the “sensitivity in comparison to A549” value ([7]; range over Panc1, Panc6.03, and PSN-1) was 8-30 fold, the “synergy with K101A or K102” value [10] was “minor synergy” and the “effect on the potency of K101A or K102” value [11] was “increasing the potency”. The “synergy with K101A or K102” value [11] was “synergized”.
With `CC[P](CC)(CC)=[Au][S]C1OC(COC(C)=O)C(OC(C)=O)C(CC(C)=O)C1OC(C)=O` (stereo not shown) the “synergy when combined with K101A or K102” value [1] was “no synergy”, the “synergy with K101A or K102” value [3] was “did not synergize” and the “synergy when combined with K101A or K102” value [17] was “moderate synergy”. The “synergy with K101A or K102” value [5] was “did not synergize”, the “synergy when combined with K101A or K102” value [9] was “minor synergy” and the “synergy with K101A or K102” value [10] was “No synergy”. The “synergy with K101A or K102” value ([11]; inducer up to 1 μM) was “No synergistic effects”.
Dihydroartemisinin was tested, and the “synergy when combined with K101A or K102” value [1] was “moderate/minor synergy”, the pIC50 ([15]; Capan-1, 96 hours of incubation) was 5.67 and the “synergy with K101A (PKC activators)” value [4] was “no synergy”. It also gave a pIC50 [18] of 6.27.
In the case of `Clc1cccc(CN=C2Nc3ccccc3NC23CCNCC3)c1` [Liproxstatin-1], the “effect on cell death induced by RSL3 or Erastin” value ([12]; Liproxstatin-1 at 304) was “completely abrogated cell death”, the “differential activity among three cell lines” value [13] was “do not show differential activity” and the “potency in blocking cell proliferation (in words)” value [13] was “not potent”.
For `O=C(O)c1cc(/N=N/c2ccc(S(=O)(=O)Nc3ccccn3)cc2)ccc1O` [Sulfasalazine], the “synergy with K101A or K102” value [5] was “did not synergize” and the “synergy with K101A or K102” value [10] was “No synergy”.
In the case of `c1ccc2c(c1)SCc1c-2[nH]c2ccccc12` [PD146176], the “effect on RSL3- or Erastin-induced cell death” value ([12]; PD146176 at 0.504) was “partially reversed”, the “differential activity among three cell lines” value [13] was “do not show differential activity” and the “potency in blocking cell proliferation (in words)” value [13] was “not potent”.
With `C/C=C(/C)C(=O)O[C@H]1C(C)=C[C@]23C(=O)[C@@H](C=C(CO)[C@@H](O)[C@]12O)[C@H]1[C@@H](C[C@H]3C)C1(C)C` [K102, ingenol-3-angelate] the “% of top inhibition by K101A or K102 without ferroptosis inducer” value [5] was roughly 60%.
With Buthionine sulfoximine [BSO] the “effect on A549 cells” value ([2]; at very high concentration (>1 mM)) was “minimal effects”.
For `CN(C)c1nc(N(C)C)nc(N(C)C)n1` [Altretamine], the “potency of inhibition of A549 cells (in words)” value [2] was “very weak inhibitors”.
With `CC(=O)N(O)CCCCCNC(=O)CCC(=O)N(O)CCCCCNC(=O)CCC(=O)N(O)CCCCCN` [Deferoxamine mesylate] the “effect on RSL3- or Erastin-induced cell death” value ([12]; Deferoxamine) was “did not rescue”, the “differential activity among three cell lines” value [13] was “do not show differential activity” and the “potency in blocking cell proliferation (in words)” value [13] was “not potent”.
For `C=CCNc1nc(NCC=C)nc(N2CCN(C(c3ccc(F)cc3)c3ccc(F)cc3)CC2)n1` [Almitrine], the “potency of inhibition of A549 cells (in words)” value [2] was “very weak inhibitors”.
With `CCOC(=O)c1ccc(NC2CCCCC2)c(N)c1` [Ferrostatin-1] the “effect on cell death induced by RSL3 or Erastin” value ([12]; Ferrostatin-1 at 3 μM) was “completely abrogated cell death”, the “differential activity among three cell lines” value [13] was “do not show differential activity” and the “potency in blocking cell proliferation (in words)” value [13] was “not potent”.
